The data set in a line: Oxidation stability of QH crystals on storage at 40° C. and 75% RH (HPLC of reduced and oxidized coenzyme Q10). Particulars: for Relative QH ratio: QH ratio before storage = 100; for Oxidizing rate: crystal stored at 40° C. and 75% RH for approximately 1 month, decrease in relative QH ratio divided by days of storage. The data set is classed as physicochemical. On the procedure: The QH crystals prepared in Examples 1 to 3 and Comparative Examples 1 and 2 above were stored at 40° C. and 75% RH in a thermostatic chamber for approximately 1 month. Before and after the storage, the reduced coenzyme Q10 content and the oxidized coenzyme Q10 content of the crystal were measured by HPLC (high performance liquid chromatography). On the basis of the measurement results, the below-described QH ratio, relative QH ratio after storage, and oxidizing rate were calculated.
• Column: AS12S05-1546WT (manufactured by YMC Co., Ltd.) 150 mm (in length) and 4.6 mm (in inner diameter) • Mobile phase: C2H3N: CH3OH=1:9 (v:v) • Detection wavelength: 290 nm • Flow rate: 1 ml/min
The “QH ratio” means the ratio of the amount of the reduced coenzyme Q10 to the total amount of the coenzyme Q10 present in the crystal, and is calculated in accordance with the following formula.
The “relative QH ratio after storage” is a value obtained by relativizing the QH ratio after storage on the basis of each of the QH ratios measured before the start of storage and after storage, assuming that the QH ratio before storage is 100. The relative QH ratio after storage is calculated in accordance with the following formula.
The “oxidizing rate” is a value obtained by dividing a change (amount of decrease) in the relative QH ratio in the period of storage by the number of days of storage, and is calculated in accordance with the following formula.

Where [1] appears, read: crystal stored at 40° C. and 75% RH for 28 days.

Structures are written as SMILES.

Turning to `COc1c(O)c(C)c(C/C=C(\C)CC/C=C(\C)CC/C=C(\C)CC/C=C(\C)CC/C=C(\C)CC/C=C(\C)CC/C=C(\C)CC/C=C(\C)CC/C=C(\C)CCC=C(C)C)c(O)c1OC` [Comparative Example 1, reduced coenzyme Q10], the Oxidizing rate came to 0.48 %/day. In addition, the “Relative QH ratio” value (crystal stored at 40° C. and 75% RH for 29 days) was 86.1 (when stored %.
As to `COc1c(O)c(C)c(C/C=C(\C)CC/C=C(\C)CC/C=C(\C)CC/C=C(\C)CC/C=C(\C)CC/C=C(\C)CC/C=C(\C)CC/C=C(\C)CC/C=C(\C)CCC=C(C)C)c(O)c1OC` [Comparative Example 2, reduced coenzyme Q10], the Oxidizing rate amounted to 0.42 %/day. Besides, the “Relative QH ratio” value under setting [1] is on record as 88.2 (when stored %.
In the same order, the values of `COc1c(O)c(C)c(C/C=C(\C)CC/C=C(\C)CC/C=C(\C)CC/C=C(\C)CC/C=C(\C)CC/C=C(\C)CC/C=C(\C)CC/C=C(\C)CC/C=C(\C)CCC=C(C)C)c(O)c1OC` [Example 1, reduced coenzyme Q10] are 0.30 %/day and 91.6 (when stored %.
For the compound `COc1c(O)c(C)c(C/C=C(\C)CC/C=C(\C)CC/C=C(\C)CC/C=C(\C)CC/C=C(\C)CC/C=C(\C)CC/C=C(\C)CC/C=C(\C)CC/C=C(\C)CCC=C(C)C)c(O)c1OC` [Example 2, reduced coenzyme Q10], the Oxidizing rate came to 0.26 %/day. The “Relative QH ratio” value under setting [1] was 92.6 (when stored %.
`COc1c(O)c(C)c(C/C=C(\C)CC/C=C(\C)CC/C=C(\C)CC/C=C(\C)CC/C=C(\C)CC/C=C(\C)CC/C=C(\C)CC/C=C(\C)CC/C=C(\C)CCC=C(C)C)c(O)c1OC` [Example 3, reduced coenzyme Q10]: the Oxidizing rate is 0.23 %/day. In addition, the “Relative QH ratio” value under setting [1] is recorded as 93.5 (when stored %.

(Values after patent publication US20260008739A1, “CRYSTAL AND FORMULATION OF REDUCED COENZYME Q10” (KANEKA CORPORATION, priority 2023, published 2026).)
